Measurements from patent publication US20020061888A1, “Combination therapy for the prophylaxis and treatment of hyperlipidemic conditions and disorders” (priority 2000, published 2002).
Several values for one entry are separate records, joined by “and”; a condition that tells them apart may be missing. Equal entries are not always repeated. Marks after values point to notes of the source that are not given here.

System: Male beagle dogs
Test: Serum total cholesterol in beagle dogs (serum lipid measurements)
Assay type: in vivo
Conditions: for TOTAL SERUM CHOLESTEROL / SERUM TOTAL CHOLESTEROL: n = 6; for decrease in serum total cholesterol concentration: compared to vehicle
Description: Male beagle dogs (9-10 kg) obtained from Marshall farms were fed a normal chow diet once a day for a two hour interval and given water ad libitum. Prior to initiating treatment, the dogs were weighed and blood samples were drawn from the cephalic vein of each dog following an overnight fast to evaluate pretreatment serum total cholesterol levels at the start of the study. […] All doses were administered in gelatin capsules per os to each dog between 9:00-9:30 a.m. prior to feeding. All animals were fed between 9:30-10:00 a.m. and were allowed two hours to eat, at which time any remaining food was removed. […] Animals were dosed daily for three weeks and blood samples were taken at the end of each week after an overnight fast for comparison with pretreatment serum total cholesterol levels. Three consecutive 24 hour fecal samples were collected for each group during the last 72 hours of each week and used to measure the concentration of fecal biles acids excreted during that time period.
Blood was collected from the cephalic vein of each dog into serum separator tubes. The blood was centrifuged at 900×g for 20 minutes at room temperature and the serum decanted. All analyses were performed on a Cobas Mira Clinical Analyzer System (Roche Diagnostic Systems, Branchburg, N.J.) using Roche Diagnostic reagents for enzymatic determinations of serum cholesterol. Commercial calibrator and quality control materials were analyzed with each run to verify assay accuracy and precision. A two-tailed, paired Students t-test was used to determine the statistical significance of changes in serum total cholesterol in treated dogs compared to pretreatment values. A one-way analysis of variance (“ANOVA”) was used to compare each pair of treatment groups to determine the statistical significance of changes in serum total cholesterol.
Beagle dogs also were administered pravastatin to evaluate the monotherapeutic effect of pravastatin on serum total cholesterol.
Male beagle dogs (9-10 kg) obtained from Marshall farms were fed once a day for two hours and given water ad libitum. Prior to initiating treatment, blood samples were drawn from the cephalic vein of each dog to evaluate pretreatment total serum cholesterol levels at the start of the study.
For the dose ranging study, the dogs were assigned to one of five groups based on mean body weights and serum total cholesterol levels. Each group received one of the following dosages: (1) vehicle (empty capsule, afternoon dosing), (2) 3.0 mg/kg/day pravastatin (afternoon dosing), (3) 10 mg/kg/day pravastatin (afternoon dosing), (4) 30 mg/kg/day pravastatin (afternoon dosing), and (5) 10 mg/kg/day pravastatin (morning dosing). One capsule containing pravastatin was administered per os to each dog between 9:00-9:30 a.m. prior to feeding for the 10 mg/kg/day morning dosing group and between 2:30-3:00 p.m. for the afternoon dosing groups. All animals were fed between 9:30-10:00 a.m. and were allowed two hours to eat, at which time any remaining food was removed. […] Animals were dosed daily for four weeks and blood samples were taken at the end of each week after an overnight fast for comparison with pretreatment serum total cholesterol levels.
Following this initial four week dose-ranging study, dogs from the two groups receiving 10 mg/kg/day pravastatin (a.m. and p.m. dosing groups) were randomized into two new treatment groups based on serum total cholesterol levels to initiate the combination treatment study. […] Dosing continued in this manner for an additional four weeks (Weeks 5-8) with blood and 48-hour fecal samples collected at the end of each week for serum lipid measurements and fecal bile acid determinations, respectively.

## CC[C@H](C)C(=O)O[C@H]1C[C@H](O)C=C2C=C[C@H](C)[C@H](CC[C@@H](O)C[C@@H](O)CC(=O)O)[C@H]21 [pravastatin, Pravastatin]
Pravastatin 10.0 mg/kg/day pm dosing, Week 3
  % change in serum total cholesterol compared to the pretreatment value of each group: (−19) %
Pravastatin 10.0 mg/kg/day pm dosing, Week 3, mean ± SEM
  TOTAL SERUM CHOLESTEROL: 128 ± 9^3 mg/dL
Pravastatin 10.0 mg/kg/day pm dosing, Week 4
  % change in serum total cholesterol compared to the pretreatment value of each group: (−21) %
Pravastatin 10.0 mg/kg/day pm dosing, Week 4, mean ± SEM
  TOTAL SERUM CHOLESTEROL: 126 ±8 mg/dL and 126 ± 8^3 mg/dL
Pravastatin 16.0 mg/kg/day, Week 1
  % change in serum total cholesterol compared to the pretreatment value of each group: (−8) %
Pravastatin 16.0 mg/kg/day, Week 1, mean ± SEM
  SERUM TOTAL CHOLESTEROL: 142 ± 8 mg/dL
Pravastatin 16.0 mg/kg/day, Week 2
  % change in serum total cholesterol compared to the pretreatment value of each group: (−12) %
Pravastatin 16.0 mg/kg/day, Week 2, mean ± SEM
  SERUM TOTAL CHOLESTEROL: 137 ± 12^2 mg/dL
Pravastatin 16.0 mg/kg/day, Week 3
  % change in serum total cholesterol compared to the pretreatment value of each group: (−14) %
Pravastatin 16.0 mg/kg/day, one week of treatment
  decrease in serum total cholesterol concentration: 8%
Pravastatin 16.0 mg/kg/day, three weeks of treatment
  decrease in serum total cholesterol concentration: 14%
Pravastatin 30.0 mg/kg/day pm dosing, Week 1
  % change in serum total cholesterol compared to the pretreatment value of each group: (+2) %
Pravastatin 30.0 mg/kg/day pm dosing, Week 1, mean ± SEM
  TOTAL SERUM CHOLESTEROL: 164 ± 10 mg/dL
Pravastatin 30.0 mg/kg/day pm dosing, Week 2
  % change in serum total cholesterol compared to the pretreatment value of each group: (−18) %
Pravastatin 30.0 mg/kg/day pm dosing, Week 2, mean ± SEM
  TOTAL SERUM CHOLESTEROL: 132 ± 8^3 mg/dL
Pravastatin 30.0 mg/kg/day pm dosing, Week 3
  % change in serum total cholesterol compared to the pretreatment value of each group: (−18) %
Pravastatin 30.0 mg/kg/day pm dosing, Week 3, mean ± SEM
  TOTAL SERUM CHOLESTEROL: 132 ± 11^3 mg/dL
Pravastatin 30.0 mg/kg/day pm dosing, Week 4
  % change in serum total cholesterol compared to the pretreatment value of each group: (−20) %
Pravastatin 30.0 mg/kg/day pm dosing, Week 4, mean ± SEM
  TOTAL SERUM CHOLESTEROL: 128 ± 7^3 mg/dL
Pravastatin 30 mg/kg/day, four week dose ranging study
  lowering of serum total cholesterol: 20%
Pravastatin monotherapy 10 mg/kg/day, Week 8
  total decrease in serum total cholesterol compared to the pretreatment value: 30%
Pravastatin monotherapy 10 mg/kg/day, dosed Weeks 1-11, Week 1
  % change from Week 0 in total serum cholesterol: (−2) %
Pravastatin monotherapy 10 mg/kg/day, dosed Weeks 1-11, Week 1, mean ± SEM
  TOTAL SERUM CHOLESTEROL: 157 ± 10 mg/dL
Pravastatin monotherapy 10 mg/kg/day, dosed Weeks 1-11, Week 2
  % change from Week 0 in total serum cholesterol: (−16) %
Pravastatin monotherapy 10 mg/kg/day, dosed Weeks 1-11, Week 2, mean ± SEM
  TOTAL SERUM CHOLESTEROL: 135 ± 17 mg/dL
Pravastatin monotherapy 10 mg/kg/day, dosed Weeks 1-11, Week 3
  % change from Week 0 in total serum cholesterol: (−18) %
Pravastatin monotherapy 10 mg/kg/day, dosed Weeks 1-11, Week 3, mean ± SEM
  TOTAL SERUM CHOLESTEROL: 132 ± 13 mg/dL
Pravastatin monotherapy 10 mg/kg/day, dosed Weeks 1-11, Week 4
  % change from Week 0 in total serum cholesterol: (−19) %
Pravastatin monotherapy 10 mg/kg/day, dosed Weeks 1-11, Week 4, mean ± SEM
  TOTAL SERUM CHOLESTEROL: 130 ± 9 [a] mg/dL
Pravastatin monotherapy 10 mg/kg/day, dosed Weeks 1-11, Week 5
  % change from Week 0 in total serum cholesterol: (−21) %
Pravastatin monotherapy 10 mg/kg/day, dosed Weeks 1-11, Week 5, mean ± SEM
  TOTAL SERUM CHOLESTEROL: 127 ± 9 [a] mg/dL
Pravastatin monotherapy 10 mg/kg/day, dosed Weeks 1-11, Week 6
  % change from Week 0 in total serum cholesterol: (−27) %
Pravastatin monotherapy 10 mg/kg/day, dosed Weeks 1-11, Week 6, mean ± SEM
  TOTAL SERUM CHOLESTEROL: 117 ± 10 [a] mg/dL
Pravastatin monotherapy 10 mg/kg/day, dosed Weeks 1-11, Week 7
  % change from Week 0 in total serum cholesterol: (−25) %
Pravastatin monotherapy 10 mg/kg/day, dosed Weeks 1-11, Week 7, mean ± SEM
  TOTAL SERUM CHOLESTEROL: 121 ± 7 [a] mg/dL
Pravastatin monotherapy 10 mg/kg/day, dosed Weeks 1-11, Week 8
  % change from Week 0 in total serum cholesterol: (−30) %
Pravastatin monotherapy 10 mg/kg/day, dosed Weeks 1-11, Week 8, mean ± SEM
  TOTAL SERUM CHOLESTEROL: 113 ±9 mg/dL and 113 ± 9 [a] mg/dL
Pravastatin monotherapy 10 mg/kg/day, dosed Weeks 1-11, Week 9
  % change from Week 0 in total serum cholesterol: (−26) %
Pravastatin monotherapy 10 mg/kg/day, dosed Weeks 1-11, Week 9, mean ± SEM
  TOTAL SERUM CHOLESTEROL: 119 ± 8 [a] mg/dL
Pravastatin monotherapy 10 mg/kg/day, dosed Weeks 1-11, Week 10
  % change from Week 0 in total serum cholesterol: (−27) %
Pravastatin monotherapy 10 mg/kg/day, dosed Weeks 1-11, Week 10, mean ± SEM
  TOTAL SERUM CHOLESTEROL: 118 ± 9 [a] mg/dL
Pravastatin monotherapy 10 mg/kg/day, dosed Weeks 1-11, Week 11
  % change from Week 0 in total serum cholesterol: (−27) %
Pravastatin monotherapy 10 mg/kg/day, dosed Weeks 1-11, Week 11, mean ± SEM
  TOTAL SERUM CHOLESTEROL: 118 ± 8 [a] mg/dL
Pravastatin monotherapy group, dosing terminated after Week 11, Week 12
  % change from Week 0 in total serum cholesterol: (−19) %
Pravastatin monotherapy group, dosing terminated after Week 11, Week 12, mean ± SEM
  TOTAL SERUM CHOLESTEROL: 131 ± 9 [a] mg/dL
Pravastatin monotherapy group, dosing terminated after Week 11, Week 13
  % change from Week 0 in total serum cholesterol: (−9) %
Pravastatin monotherapy group, dosing terminated after Week 11, Week 13, mean ± SEM
  TOTAL SERUM CHOLESTEROL: 147 ± 9 mg/dL
Pravastatin monotherapy group, dosing terminated after Week 11, Week 14
  % change from Week 0 in total serum cholesterol: (−11) %
Pravastatin monotherapy group, dosing terminated after Week 11, Week 14, mean ± SEM
  TOTAL SERUM CHOLESTEROL: 144 ± 12 mg/dL
